Source: article PMC8424217 (The Journal of Biological Chemistry, 2021)
Entries after “also recorded” stand apart in the source; their conditions may differ. Peptide text beside a SMILES is read from it. * marks the point of attachment. Palmitoyl = CCCCCCCCCCCCCCCC(=O)*

Legend:
Circular dichroism = assay type: physicochemical; conditions: peptide 0.2 mg mL^−1, 20 °C
Method: Circular dichroism (CD) analyses were performed in a JASCO J-815 (JAPAN Spectroscopy & Chromatography Technology) spectropolarimeter coupled to a temperature controller Peltier. Samples were dissolved at 0.2 mg mL^−1 in either water, 0.5 mg mL^−1 DPC (dodecylphophocholine), 0.1 mg mL^−1 SDS (sodium dodecyl sulfate), or TFE (2,2,2-trifluoroethanol) aqueous solutions at concentrations of 20%, 50%, and 80%. The CD spectra were recorded in the measured range of 200–250 nm using a scan speed of 50 nm min^−1, and the baseline was corrected by subtraction of the solvent spectrum. The temperature was set to 20 °C.

hUT = biological target: T1, hUT (Homo sapiens, UniProt Q9UKP6); experiment: ERK1/2 phosphorylation, BRET-based biosensor, HEK 293-hUT cells; assay type: cell-based; design: expressed in transfected cells; conditions: concentration-response
T1 sequence (Q9UKP6 1-389): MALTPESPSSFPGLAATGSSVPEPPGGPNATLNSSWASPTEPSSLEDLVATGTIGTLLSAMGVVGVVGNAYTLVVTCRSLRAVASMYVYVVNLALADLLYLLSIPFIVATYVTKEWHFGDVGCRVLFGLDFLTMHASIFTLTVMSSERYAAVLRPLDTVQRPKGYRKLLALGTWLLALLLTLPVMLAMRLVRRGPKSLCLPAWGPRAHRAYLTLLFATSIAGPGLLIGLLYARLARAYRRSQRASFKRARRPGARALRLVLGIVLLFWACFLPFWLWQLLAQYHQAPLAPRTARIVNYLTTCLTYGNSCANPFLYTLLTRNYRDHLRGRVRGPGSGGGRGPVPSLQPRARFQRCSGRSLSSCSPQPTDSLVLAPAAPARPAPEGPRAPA
Method: HEK 293-hUT cells were grown in DMEM culture media supplemented with 10% foetal bovine serum, HEPES, sodium pyruvate, and G418 (200 μg mL^−1). Passages were performed when cells reached 80% of confluency. Cells were initially plated in 96-well plates at a density of 10,000 cells/well. The following day, the medium is replaced with DMEM culture media supplemented with 2.5% foetal bovine serum (FBS), and 12 h later, cells were transiently transfected with 25 ng/well of a Gq-polycistronic, 25 ng/well of a G12-polycistronic BRET sensor, 25 ng/well of a G13-polycistronic BRET sensor, 2.5 ng/well pIRESB RLucII-ERK-NLS-GFP BRET sensor, 2.5 ng β-arrestin 1-polycistronic BRET sensor, or 2.5 ng β-arrestin 2-polycistronic BRET sensor using Lipofectamine2000 at a ratio of 3:1 (Lipofectamine/plasmid DNA) in serum-free Opti-MEM ([44], [81]). […] Then, to evaluate Gq and G12 activation, 10 μl of a 1/20 dilution (diluted before use) of coelenterazine 400A (stock at 1 mM in ethanol) in Kreb's buffer and 10 μl of the 10× appropriate concentration of peptide were added, and the luminescence was evaluated with an Infinite M1000 PRO. […] Readings were performed after 5 min using an Infinite M1000 PRO. […] BRET ratio was determined by calculating the ratio of the light emitted by GFP10 over the light emitted by the RlucII. […]

HEK 293 cells = experiment: EGFR transactivation (EGFR-GFP internalization, confocal microscopy), untransfected/mock HEK 293 cells; assay type: cell-based; conditions: HEK 293, 30 min
Method: Figure 7 UT-pepducins-mediated transactivation of EGFR following hUT activation. […] EGFR internalization, following hUT stimulation with various ligands for 30 min, was visualized using confocal microscopy. The images shown are from representative experiments repeated at least three times.
HEK 293 and HEK 293-hUT cells, transiently transfected with cDNA encoding fluorescently labeled EGFR (EGFR-GFP) (2 μg), were plated onto 35-mm glass-bottomed culture dishes (MatTek Corp). Following stimulation, cells were washed once with PBS and fixed in 4% paraformaldehyde for 15 min. To study the involvement of Gq in EGFR internalization, cells were treated with YM254890 (100 nM) for 1h prior peptide treatments. […] EGFR-GFP internalization was visualized using a combination of excitation (488 nm) and emission filters (499 and 520 nm). […]
endogenously expressed hUT activation in untransfected HEK 293 cells.HEK 293 expressing low level of wild type hUT and transfected […]
using confocal microscopy. The image shown are from representative experiments repeated at least three times. Arrows indicate cellular aggregates representing EGFR internalization.
(1 picture or pasted object on this page, not shown here)

Row | Compound | CD conformation in SDS (Circular dichroism; 0.1 mg mL^−1 SDS) | CD conformation in DPC (Circular dichroism; 0.5 mg mL^−1 DPC) | CD conformation in TFE (Circular dichroism; TFE 80%) | CD conformation in water (Circular dichroism; water) | ERK1/2 phosphorylation (BRET) versus hUII (hUT) | EGFR internalization in untransfected/mock-transfected cells (HEK 293 cells)
1 | CCCCCCCCCCCCCCCC(=O)N[C@@H](Cc1c[nH]c2ccccc12)C(=O)N[C@@H](CC(C)C)C(=O)N[C@@H](CO)C(=O)N[C@@H](CCC(N)=O)C(=O)N[C@@H](CCCNC(=N)N)C(=O)N[C@@H](C)C(=O)N[C@@H](CO)C(=O)N[C@@H](Cc1ccccc1)C(=O)N[C@@H](CCCCN)C(=O)N[C@@H](CCCNC(=N)N)C(=O)N[C@@H](C)C(=O)N[C@@H](CCCNC(=N)N)C(=O)N[C@@H](CCCNC(=N)N)C(N)=O [[Trp^1, Leu^2]hUT-Pep3] (Palmitoyl-WLSQRASFKRARR-NH2) | β-sheet conformation (lower peak at 216 nm) | less structured α-helix conformation | fold as an α-helix (dark green, TFE 80%, lower peaks at 205 and 216 nm) | nonstructured shape (random coil) | lower potency and efficacy than hUII | –
2 | CC(C)[C@H](NC(=O)[C@@H]1CSSC[C@H](NC(=O)[C@H](CC(=O)O)NC(=O)[C@@H]2CCCN2C(=O)[C@@H](NC(=O)[C@@H](N)CCC(=O)O)[C@@H](C)O)C(=O)N[C@@H](Cc2ccccc2)C(=O)N[C@@H](Cc2c[nH]c3ccccc23)C(=O)N[C@@H](CCCCN)C(=O)N[C@@H](Cc2ccc(O)cc2)C(=O)N1)C(=O)O [hUII, urotensin II, reference compound] | – | – | – | – | – | limited EGFR internalization can be observed in untransfected HEK 293 cells
3 | CCCCCCCCCCCCCCCC(=O)N[C@@H](CCCNC(=N)N)C(=O)N1CCC[C@H]1C(=O)N[C@@H](CC(C)C)C(=O)N[C@@H](CC(=O)O)C(=O)N[C@H](C(=O)N[C@H](C(=O)N[C@@H](CCC(N)=O)C(=O)N[C@@H](CCCNC(=N)N)C(=O)N1CCC[C@H]1C(=O)N[C@@H](CCCCN)C(=O)NCC(=O)N[C@@H](Cc1ccc(O)cc1)C(N)=O)C(C)C)[C@@H](C)O [hUT-Pep2] (Palmitoyl-RPLDTVQRPKGY-NH2) | – | – | – | – | lower potency and efficacy than hUII; also recorded: partial agonist | –
